# Measurements reported in patent publication US9340574B2, “Inhibitors of protein tyrosine phosphatases” (Indiana University Research and Technology Corporation, priority 2012, dated 2016).
# Experiments:
# PTP-MEG2 = PTP-MEG2 (Homo sapiens (Human), UniProt P43378); assay: pNPP hydrolysis enzyme assay, PTP-MEG2; assay type: biochemical
# Procedure: (§1) Enzyme kinetic assay. PTP activity was assayed using p-nitrophenyl phosphate (pNPP) as a substrate in 3,3-dimethylglutarate buffer (50 mM 3,3-dimethylglutarate, pH 7.0, 1 mM EDTA, 150 mM NaCl, 2 mM DTT, 0.1 mg/mL BSA) at 25° C. The assays were performed in 96-well plates. Normally, to determine the IC50 values, the reaction was initiated by the addition of enzyme (final concentration at 10 nM) to a reaction mixture (0.2 mL) containing 2 mM (Km for the substrate) pNPP with various concentrations of inhibitors. The reaction rate was measured using a SpectraMax Plus 384 Microplate Spectrophotometer (Molecular Devices). To determine the mode of inhibition, the reactions were initiated by the addition of PTP-MEG2 to the reaction mixtures (0.2 mL) containing various concentrations of pNPP with different concentrations of the inhibitor 7. Data were fitted using SigmaPlot Enzyme Kinetics Module (Systat Software, Inc.).
# PTP-MEG2 Overexpression, and Purification. The expression vector containing residues 277-582 of PTP-MEG2 catalytic domain was provided by Stefan Knapp at the University of Oxford. For protein expression, transformed cells were grown at 37° C. in Luria broth (LB) containing […] ampicillin for 4 h to an OD600 nm @0.6, and then induced for overnight at 18° C. with 0.4 mM IPTG. Cells were harvested by centrifugation (6500 rpm for 15 min at 4° C.), and the cell pellets from 1.5 L LB medium were suspended in 30 mL of ice-cold lysis buffer consisting of 5 mM imidazole, 500 mM NaCl, 20 mM Tris-HCl (pH 7.9), 0.05 mg/mL trypsin inhibitor and 0.1 mM PMSF. The suspensions were passed twice through a French Press at 1200 psi, and the cell lysates were centrifuged at 4° C. for 30 min at 16,000 rpm. The supernatants were mixed with 2 mL Ni-NTA Agarose (His*Bind Resin) (Qiagen) at 4° C. for 1 hour, then transferred mixture to an empty column. The column was washed by 200 mL binding buffer (5 mM imidazole, 500 mM NaCl, 20 mM Tris-HCl (pH 7.9)), followed by 20 mL wash buffer (20 mM imidazole, 500 mM NaCl, 20 mM Tris-HCl (pH 7.9)), and then eluted with 20 mL elution buffer (200 mM imidazole, 500 mM NaCl, 20 mM Tris-HCl (pH 7.9), 5 mM DTT). The elution was dialyzed for 6 h at 4° C. against 1 L buffer A (50 mM NaCl, 20 mM MES (pH6.0), 1 mM EDTA), and then loaded onto a Mono S column equilibrated at 4° C. with buffer A. The column was washed with 10 ml buffer A and then eluted with a 40 mL linear gradient of 0 to 1M NaCl in buffer A. The PTP-MEG2 was eluted at 0.35 M NaCl. The column fractions were analyzed by measuring the absorbance at 280 nm and by carrying out SDS-PAGE analysis. The fractions were combined, dialyzed against 1 L buffer A and concentrated at 4° C. to 8 mg/mL using an Amicon concentrator and then stored at −80° C.
# C2C12 myotubes = assay: Insulin signaling in C2C12 myotubes; assay type: cell-based; details: 1 hour pretreatment, 100 nM insulin 30 min
# Procedure: Cell lysate (20 μg protein) was subjected to 10% SDS-PAGE and probed with phospho-Akt, phospho-IR (Y1162/1163) or Akt antibody, respectively. […] Cell lysate (20 μg protein) was subjected to 10% SDS-PAGE and probed with phospho-IR(Y1162/1163), phospho-Akt (pS473) or total Akt antibody, respectively. […] Cell lysate (20 μg protein) or insulin receptor immunoprecipitation beads were subjected to 10% SDS-PAGE and probed with phospho-Akt, Akt, insulin receptor beta or phospho-tyrosine antibody (4G10), respectively. The non-specific band from insulin receptor immunoprecipitates served as a loading control for insulin receptor and phospho-insulin receptor.
# Western blot analysis. Cells were homogenized in the lysis buffer (50 mM Hepes, pH 7.5, 150 mM NaCl, 10% Glycerol, 1% Triton X-100, 1.5 mM MgCl2, 1 mM EGTA, 10 μM Sodium Pyrophosphate, 100 mM sodium fluoride and freshly added 100 μM sodium vanadate, 1 mM PMSF, 10 μg/ml Aprotinin, and 10 μg/mL Leupeptin). Protein extracts were resolved on an SDS-PAGE gel and transferred to nitrocellulose membrane. […] Protein signals were detected by incubation with HRP-conjugated secondary antibodies, followed by ECL detection reagent (Pierce). Western blots were scanned and quantified using the Quantity One software (Bio-Rad).
# PTPε = PTPε (Homo sapiens (Human), UniProt P23469); assay: pNPP hydrolysis enzyme assay, PTPε; assay type: biochemical
# Procedure: as §1
# [1] = test system: panel of mammalian PTPs (PTP-MEG1, SHP1, SHP2, Lyp, FAP-1, PTP-PEST, PTPH1, Laforin, HePTP, CD45, LAR, DEP1, PTPμ, PTPγ, PTPβ, PTPε, VHR, VHX); assay: Inhibition of a panel of mammalian PTPs at 10 μM; assay type: biochemical
# Procedure: as §1
# Chain of PTP-MEG2 (P43378 277-582): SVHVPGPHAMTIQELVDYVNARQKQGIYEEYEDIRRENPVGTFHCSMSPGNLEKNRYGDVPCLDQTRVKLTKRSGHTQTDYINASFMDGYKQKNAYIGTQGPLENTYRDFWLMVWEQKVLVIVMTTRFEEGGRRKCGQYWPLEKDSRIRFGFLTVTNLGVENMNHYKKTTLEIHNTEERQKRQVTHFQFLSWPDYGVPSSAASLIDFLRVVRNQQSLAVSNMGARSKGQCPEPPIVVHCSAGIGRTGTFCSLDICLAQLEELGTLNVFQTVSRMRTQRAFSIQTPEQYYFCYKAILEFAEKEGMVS
# Chain of PTPε (P23469 20-700): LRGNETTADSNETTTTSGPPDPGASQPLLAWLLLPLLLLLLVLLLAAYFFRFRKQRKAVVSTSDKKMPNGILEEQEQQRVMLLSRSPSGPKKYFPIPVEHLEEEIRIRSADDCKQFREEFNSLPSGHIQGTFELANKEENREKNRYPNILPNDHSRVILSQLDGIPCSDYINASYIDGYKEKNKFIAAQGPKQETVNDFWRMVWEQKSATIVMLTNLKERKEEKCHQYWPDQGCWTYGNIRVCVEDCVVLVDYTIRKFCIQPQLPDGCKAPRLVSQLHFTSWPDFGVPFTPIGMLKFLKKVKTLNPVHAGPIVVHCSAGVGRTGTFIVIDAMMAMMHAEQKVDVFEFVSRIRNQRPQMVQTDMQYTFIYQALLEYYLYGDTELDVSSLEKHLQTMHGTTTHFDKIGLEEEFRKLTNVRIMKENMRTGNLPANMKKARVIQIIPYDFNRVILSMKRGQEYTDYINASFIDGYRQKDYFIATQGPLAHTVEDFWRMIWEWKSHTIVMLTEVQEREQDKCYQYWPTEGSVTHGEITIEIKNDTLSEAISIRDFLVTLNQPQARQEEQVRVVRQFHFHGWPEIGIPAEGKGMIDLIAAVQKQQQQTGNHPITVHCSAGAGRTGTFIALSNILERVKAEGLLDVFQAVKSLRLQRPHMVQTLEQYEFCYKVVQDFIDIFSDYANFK
structure (smiles),measurement,setting,value
COc1cc(CC(=O)NCC(NC(=O)C(CCCNC(=O)c2cccc(I)c2)NC(=O)C(Cc2ccc(C(F)(F)P(=O)(O)O)cc2)NC(=O)c2ccc(C)c(Br)c2)C(N)=O)ccc1O (stereo not shown) [Compound 7],improvement in potency / binding affinity for PTP-MEG2 over the preceding lead,"PTP-MEG2; Compound 5 vs Compound 3, Compound 7 vs Compound 5",3.6 fold
same,mode of inhibition of PTP-MEG2,PTP-MEG2; kinetic analysis,reversible and competitive inhibitor
same,Ki,"PTP-MEG2; kinetic analysis, Lineweaver-Burk",34 ± 2 nM
same,IC50,"PTP-MEG2; pNPP substrate, read-out: IC50 (nM) PTP-MEG2",75 ± 10 nM
same,"insulin signaling (phospho-Akt, phospho-IR)",C2C12 myotubes,augmented insulin signaling
same,IC50,PTPε,> 10000 nM
same,inhibition of a panel of mammalian PTPs,[1],no inhibition
